Data: patent US20240238423A9, “TETRAHYDROISOQUINOLINE HETEROBIFUNCTIONAL BCL-XL DEGRADERS” (Treeline Biosciences, Inc., priority 2022, published 2024)

Molecular target: T1, Human BCL-XL protein (N-terminal HiBiT tagged BCL-XL in HT1080 cells) (Homo sapiens, UniProt Q07817)
T1 construct: expressed in transfected cells; host or cells: HT-1080 (ATCC CCL-121), stably transduced with lentivirus pLV-UBC-N-HiBiT-BCL-XL-PGK-puro and selected with puromycin
Assay: HiBiT based degradation assay
Assay type: cell-based
Details: HT1080 cells expressing HiBiT-BCL-XL, 24 h; for Ymin (24 h): BCL-XL degradation normalized with DMSO control; for DC50: BCL-XL degradation, read-out: EC50 (24 h)
Summary of the method: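 This HiBiT degradation assay measured loss of BCL-XL in HT1080 cells that stably express an N-terminal HiBiT-BCL-XL fusion delivered by lentivirus. Cells were added to compound-spotted 384-well plates, and luminescence was read on a PHERAstar FSX reader. Signal was expressed relative to DMSO controls, curves were fitted by four-parameter logistic regression, and for hook-shaped curves the Ymin point served as the bottom plateau when calculating EC50.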

T1 sequence (Q07817 whole entry): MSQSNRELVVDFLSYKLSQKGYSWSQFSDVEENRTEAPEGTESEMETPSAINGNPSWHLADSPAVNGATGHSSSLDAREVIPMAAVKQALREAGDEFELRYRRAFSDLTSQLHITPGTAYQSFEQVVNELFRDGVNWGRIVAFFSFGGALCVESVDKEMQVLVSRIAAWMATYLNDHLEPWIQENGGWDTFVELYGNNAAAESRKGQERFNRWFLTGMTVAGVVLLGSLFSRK

Row | Ymin (24 h) | DC50 | SMILES
1 | A (Ymin < 50%) | < 0.1 µM | Cc1c(O[C@H]2CC[C@H](CCCCN3CCC(Oc4ccc5c(C6CCC(=O)NC6=O)nn(C)c5c4)CC3)CC2)cccc1-c1ccc(N2CCc3cccc(C(=O)Nc4nc5ccccc5s4)c3C2)nc1C(=O)O (stereo partly drawn) [Compound 326a, 6-(8-(benzo[d]thiazol-2-ylcarbamoyl)-3,4-dihydroisoquinolin-2(1H)-yl)-3-(3-(((1s,4r)-4-(4-(4-((3-(2,6-dioxopiperidin-3-yl)-1-methyl-1H-indazol-6-yl)oxy)piperidin-1-yl)butyl)cyclohexyl)oxy)-2-methylphenyl)picolinic acid]
2 | A (Ymin < 50%) | < 0.1 µM | Cc1c(O[C@H]2CC[C@H](CCCCN3CCC(Oc4cccc5c(C6CCC(=O)NC6=O)nn(C)c45)CC3)CC2)cccc1-c1ccc(N2CCc3cccc(C(=O)Nc4nc5ccccc5s4)c3C2)nc1C(=O)O (stereo partly drawn) [Compound 327a, 6-(8-(benzo[d]thiazol-2-ylcarbamoyl)-3,4-dihydroisoquinolin-2(1H)-yl)-3-(3-(((1s,4r)-4-(4-(4-((3-(2,6-dioxopiperidin-3-yl)-1-methyl-1H-indazol-7-yl)oxy)piperidin-1-yl)butyl)cyclohexyl)oxy)-2-methylphenyl)picolinic acid]
3 | A (Ymin < 50%) | < 0.1 µM | Cn1nc(C2CCC(=O)NC2=O)c2ccc(N3CCN(CCC[C@H]4CC[C@H](Oc5cccc(-c6ccc(N7CCc8cccc(C(=O)Nc9nc%10ccccc%10s9)c8C7)nc6C(=O)O)c5C(F)(F)F)CC4)CC3)cc21 (stereo partly drawn) [Compound 328a, 6-(8-(benzo[d]thiazol-2-ylcarbamoyl)-3,4-dihydroisoquinolin-2(1H)-yl)-3-(3-(((1s,4r)-4-(3-(4-(3-(2,6-dioxopiperidin-3-yl)-1-methyl-1H-indazol-6-yl)piperazin-1-yl)propyl)cyclohexyl)oxy)-2-(trifluoromethyl)phenyl)picolinic acid]
4 | A (Ymin < 50%) | < 0.1 µM | Cn1nc(C2CCC(=O)NC2=O)c2ccc(N3CCN(CCCC[C@H]4CC[C@H](Oc5cccc(-c6ccc(N7CCc8cccc(C(=O)Nc9nc%10ccccc%10s9)c8C7)nc6C(=O)O)c5)CC4)CC3)cc21 (stereo partly drawn) [Compound 329a, 6-(8-(benzo[d]thiazol-2-ylcarbamoyl)-3,4-dihydroisoquinolin-2(1H)-yl)-3-(3-(((1s,4r)-4-(4-(4-(3-(2,6-dioxopiperidin-3-yl)-1-methyl-1H-indazol-6-yl)piperazin-1-yl)butyl)cyclohexyl)oxy)phenyl)picolinic acid]
5 | A (Ymin < 50%) | < 0.1 µM | Cn1nc(C2CCC(=O)NC2=O)c2ccc(N3CCN(CCC[C@H]4CC[C@H](Oc5cccc(-c6ccc(N7CCc8cccc(C(=O)Nc9nc%10ccccc%10s9)c8C7)nc6C(=O)O)c5)CC4)CC3)cc21 (stereo partly drawn) [Compound 330a, 6-(8-(benzo[d]thiazol-2-ylcarbamoyl)-3,4-dihydroisoquinolin-2(1H)-yl)-3-(3-(((1s,4r)-4-(3-(4-(3-(2,6-dioxopiperidin-3-yl)-1-methyl-1H-indazol-6-yl)piperazin-1-yl)propyl)cyclohexyl)oxy)phenyl)picolinic acid]

The next lines start with the compound.

Row | SMILES | Ymin (24 h) | DC50
6 | Cn1nc(C2CCC(=O)NC2=O)c2ccc(NC(=O)CN3CCC(CCCOc4cccc(-c5ccc(N6CCc7cccc(C(=O)Nc8nc9ccccc9s8)c7C6)nc5C(=O)O)c4C(F)(F)F)CC3)cc21 (stereo not drawn) [Compound 313, 6-[8-(1,3-benzothiazol-2-ylcarbamoyl)-3,4-dihydro-1H-isoquinolin-2-yl]-3-[3-[3-[1-[2-[[3-(2,6-dioxo-3-piperidyl)-1-methyl-indazol-6-yl]amino]-2-oxo-ethyl]-4-piperidyl]propoxy]-2-(trifluoromethyl)phenyl]pyridine-2-carboxylic acid] | A (Ymin < 50%) | < 0.1 µM
7 | Cn1nc(C2CCC(=O)NC2=O)c2ccc(NC(=O)CN3CCC(CCCOc4cccc(-c5ccc(N6CCc7cccc(C(=O)Nc8nc9ccccc9s8)c7C6)nc5C(=O)O)c4)CC3)cc21 (stereo not drawn) [Compound 314, 6-(8-(benzo[d]thiazol-2-ylcarbamoyl)-3,4-dihydroisoquinolin-2(1H)-yl)-3-(3-(3-(1-(2-((3-(2,6-dioxopiperidin-3-yl)-1-methyl-1H-indazol-6-yl)amino)-2-oxoethyl)piperidin-4-yl)propoxy)phenyl)picolinic acid] | B (50% ≤ Ymin < 70%) | < 0.1 µM
8 | Cc1c(O[C@H]2CC[C@H](CCCN3CCN(c4ccc5c(N6CCC(=O)NC6=O)nn(C)c5c4)CC3)CC2)cccc1-c1ccc(N2CCc3cccc(C(=O)Nc4nc5ccccc5s4)c3C2)nc1C(=O)O [Compound 316a, 6-(8-(benzo[d]thiazol-2-ylcarbamoyl)-3,4-dihydroisoquinolin-2(1H)-yl)-3-(3-(((1s,4r)-4-(3-(4-(3-(2,4-dioxotetrahydropyrimidin-1(2H)-yl)-1-methyl-1H-indazol-6-yl)piperazin-1-yl)propyl)cyclohexyl)oxy)-2-methylphenyl)picolinic acid] | A (Ymin < 50%) | < 0.1 µM
9 | Cc1c(OCCCC2CCN(CC(=O)Nc3ccc4c(N5CCC(=O)NC5=O)nn(C)c4c3)CC2)cccc1-c1ccc(N2CCc3cccc(C(=O)Nc4nc5ccccc5s4)c3C2)nc1C(=O)O [Compound 317, 6-(8-(benzo[d]thiazol-2-ylcarbamoyl)-3,4-dihydroisoquinolin-2(1H)-yl)-3-(3-(3-(1-(2-((3-(2,4-dioxotetrahydropyrimidin-1(2H)-yl)-1-methyl-1H-indazol-6-yl)amino)-2-oxoethyl)piperidin-4-yl)propoxy)-2-methylphenyl)picolinic acid] | B (50% ≤ Ymin < 70%) | < 0.1 µM
10 | Cc1c(O[C@H]2CC[C@H](CCCN3CCN(c4ccc5c(C6CCC(=O)NC6=O)nn(C)c5c4)C(C)(C)C3)CC2)cccc1-c1ccc(N2CCc3cccc(C(=O)Nc4nc5ccccc5s4)c3C2)nc1C(=O)O (stereo partly drawn) [Compound 318a, 6-(8-(benzo[d]thiazol-2-ylcarbamoyl)-3,4-dihydroisoquinolin-2(1H)-yl)-3-(3-(((1s,4r)-4-(3-(4-(3-(2,6-dioxopiperidin-3-yl)-1-methyl-1H-indazol-6-yl)-3,3-dimethylpiperazin-1-yl)propyl)cyclohexyl)oxy)-2-methylphenyl)picolinic acid] | A (Ymin < 50%) | < 0.1 µM
11 | Cn1nc(C2CCC(=O)NC2=O)c2ccc(N3CCN(CCCC[C@H]4CC[C@H](Oc5cccc(-c6ccc(N7CCc8cccc(C(=O)Nc9nc%10ccccc%10s9)c8C7)nc6C(=O)O)c5C(F)(F)F)CC4)CC3)cc21 (stereo partly drawn) [Compound 319a, 6-(8-(benzo[d]thiazol-2-ylcarbamoyl)-3,4-dihydroisoquinolin-2(1H)-yl)-3-(3-(((1s,4r)-4-(4-(4-(3-(2,6-dioxopiperidin-3-yl)-1-methyl-1H-indazol-6-yl)piperazin-1-yl)butyl)cyclohexyl)oxy)-2-(trifluoromethyl)phenyl)picolinic acid] | A (Ymin < 50%) | < 0.1 µM
12 | Cc1c(O[C@H]2CC[C@H](CCCCN3CCN(c4ccc5c(C6CCC(=O)NC6=O)nn(C)c5c4)C(C)(C)C3)CC2)cccc1-c1ccc(N2CCc3cccc(C(=O)Nc4nc5ccccc5s4)c3C2)nc1C(=O)O (stereo partly drawn) [Compound 322a, 6-(8-(benzo[d]thiazol-2-ylcarbamoyl)-3,4-dihydroisoquinolin-2(1H)-yl)-3-(3-(((1s,4r)-4-(4-(4-(3-(2,6-dioxopiperidin-3-yl)-1-methyl-1H-indazol-6-yl)-3,3-dimethylpiperazin-1-yl)butyl)cyclohexyl)oxy)-2-methylphenyl)picolinic acid] | A (Ymin < 50%) | < 0.1 µM
13 | Cc1c(O[C@H]2CC[C@H](CCCCN3CCN(c4ccc5c(C6CCC(=O)NC6=O)nn(C)c5c4)CC3(C)C)CC2)cccc1-c1ccc(N2CCc3cccc(C(=O)Nc4nc5ccccc5s4)c3C2)nc1C(=O)O (stereo partly drawn) [Compound 323a, 6-(8-(benzo[d]thiazol-2-ylcarbamoyl)-3,4-dihydroisoquinolin-2(1H)-yl)-3-(3-(((1s,4r)-4-(4-(4-(3-(2,6-dioxopiperidin-3-yl)-1-methyl-1H-indazol-6-yl)-2,2-dimethylpiperazin-1-yl)butyl)cyclohexyl)oxy)-2-methylphenyl)picolinic acid] | A (Ymin < 50%) | < 0.1 µM
14 | Cc1c(O[C@H]2CC[C@H](CCCCN3CCN(c4ccc5c(C6CCC(=O)NC6=O)nn(C)c5c4C)CC3)CC2)cccc1-c1ccc(N2CCc3cccc(C(=O)Nc4nc5ccccc5s4)c3C2)nc1C(=O)O (stereo partly drawn) [Compound 324a, 6-(8-(benzo[d]thiazol-2-ylcarbamoyl)-3,4-dihydroisoquinolin-2(1H)-yl)-3-(3-(((1s,4r)-4-(4-(4-(3-(2,6-dioxopiperidin-3-yl)-1,7-dimethyl-1H-indazol-6-yl)piperazin-1-yl)butyl)cyclohexyl)oxy)-2-methylphenyl)picolinic acid] | A (Ymin < 50%) | < 0.1 µM
15 | Cc1cc2c(C3CCC(=O)NC3=O)nn(C)c2cc1N1CCN(CCCC[C@H]2CC[C@H](Oc3cccc(-c4ccc(N5CCc6cccc(C(=O)Nc7nc8ccccc8s7)c6C5)nc4C(=O)O)c3C)CC2)CC1 (stereo partly drawn) [Compound 325a, 6-(8-(benzo[d]thiazol-2-ylcarbamoyl)-3,4-dihydroisoquinolin-2(1H)-yl)-3-(3-(((1s,4r)-4-(4-(4-(3-(2,6-dioxopiperidin-3-yl)-1,5-dimethyl-1H-indazol-6-yl)piperazin-1-yl)butyl)cyclohexyl)oxy)-2-methylphenyl)picolinic acid] | A (Ymin < 50%) | < 0.1 µM
